≈ marks a conversion by molar mass, not a printed value. Where two headings read alike, the source gives them in different places.
How the values were obtained:
Assay type in all cases: cell-based
[1] = tested on: Pasteurella hemolytica 22C; assay: MIC, broth-dilution microtiter test, Pasteurella hemolytica 22C; details: Pasteurella hemolytica 22C; broth-dilution microtiter; read-out: MIC
Text: (§1) The MIC's in Table X were obtained using conventional broth-dilution microtiter tests.

[2] = tested on: Staphylococcus aureus; assay: MIC, broth-dilution microtiter test, Staphylococcus aureus
Text: as §1

[3] = tested on: Pasteurella multocida 17E; assay: MIC, broth-dilution microtiter test, Pasteurella multocida 17E
Text: as §1

[4] = tested on: Streptococcus Group 9960; assay: MIC, standard agar-dilution assay, Streptococcus Group 9960; details: GROUP9960; Streptococcus Group 9960; agar dilution; read-out: MIC
[5] = tested on: Staphylococcus aureus X1.1; assay: MIC, standard agar-dilution assay, Staphylococcus aureus X1.1; details: Staphylococcus aureus, X1.1
[6] = tested on: Staphylococcus aureus X400; assay: MIC, standard agar-dilution assay, Staphylococcus aureus X400; details: Staphylococcus aureus, X400
[7] = tested on: Haemophilus influenzae Holt; assay: MIC, standard agar-dilution assay, Haemophilus influenzae Holt
[8] = tested on: Mycoplasma hyorhinis; assay: MIC, broth-dilution microtiter test, Mycoplasma hyorhinis
Text: as §1

[9] = tested on: Staphylococcus epidermidis EPI2; assay: MIC, standard agar-dilution assay, Staphylococcus epidermidis EPI2; details: Staphylococcus epidermidis, EPI2
[10] = tested on: Staphylococcus epidermidis EPI1; assay: MIC, standard agar-dilution assay, Staphylococcus epidermidis EPI1; details: Staphylococcus epidermidis, EPI1
[11] = tested on: Streptococcus bovis 80; assay: MIC, broth-dilution microtiter test, Streptococcus bovis 80; details: Streptococcus equinus
Text: as §1

[12] = tested on: Pasteurella multocida 60A; assay: MIC, broth-dilution microtiter test, Pasteurella multocida 60A; details: Pasteurella multocida 60A; avian isolate; broth-dilution microtiter; read-out: MIC
Text: as §1

[13] = tested on: Streptococcus pyogenes C203; assay: MIC, standard agar-dilution assay, Streptococcus pyogenes C203; details: Streptococcus pyogenes, C203
[14] = tested on: Staphylococcus aureus V41; assay: MIC, standard agar-dilution assay, Staphylococcus aureus V41; details: Staphylococcus aureus, V41
[15] = tested on: Mycoplasma gallisepticum; assay: MIC, broth-dilution microtiter test, Mycoplasma gallisepticum; details: Mycoplasmoides gallisepticum
Text: as §1

[16] = tested on: Streptococcus pneumoniae Park I; assay: microbe, parasite or virus in culture
[17] = tested on: Staphylococcus aureus S13E; assay: MIC, standard agar-dilution assay, Staphylococcus aureus S13E; details: Staphylococcus aureus, S13E
[18] = tested on: Streptococcus Group D X66; assay: MIC, standard agar-dilution assay, Streptococcus Group D X66; details: Streptococcus Group D X66; agar dilution; read-out: MIC
[19] = tested on: Haemophilus influenzae R252; assay: MIC, standard agar-dilution assay, Haemophilus influenzae R252
[20] = Pasteurella multocida 17E, bovine isolate, broth-dilution microtiter, read-out: MIC
[21] = Streptococcus bovis 80, broth-dilution microtiter, read-out: MIC

Row | SMILES | MIC [1] | MIC [2] | MIC [3, 20] | MIC [4] | MIC [5] | MIC [6] | MIC ([7]; Haemophilus influenzae) | MIC ([8]; Mycoplasma) | MIC [9] | MIC [10] | MIC [11, 21] | MIC [12] | MIC [13] | MIC [14] | MIC [15] | MIC ([16]; Streptococcus pneumoniae) | MIC [17] | MIC [18] | MIC ([19]; Haemophilus influenzae, R252) | further results
1 | CCC1OC(=O)CC(O)C(C)C(OC2OC(C)C(OC3CC(C)(O)C(O)C(C)O3)C(N(C)C)C2O)C(CCNC(=O)Cc2ccccc2)CC(C)C(=O)C=CC(C)=CC1COC1OC(C)C(O)C(OC)C1OC (stereo not drawn) [Compound 3, 20-DH-DO-20-[N-(Phenylacetyl)amino]tylosin] | > 50 µg/mL | 1.56 µg/mL (≈ 1.51 µM) | > 50 µg/mL | 64 µg/mL (≈ 61.8 µM) | 1 µg/mL (≈ 0.966 µM) | 2 µg/mL (≈ 1.93 µM) | 128 µg/mL (≈ 124 µM) | 12.5 µg/mL (≈ 12.1 µM) | 0.5 µg/mL (≈ 0.483 µM) | 0.5 µg/mL (≈ 0.483 µM) | 6.25 µg/mL (≈ 6.04 µM) | > 50 µg/mL | 2 µg/mL (≈ 1.93 µM) | 1 µg/mL (≈ 0.966 µM) | 0.78 µg/mL (≈ 0.753 µM) | 1 µg/mL (≈ 0.966 µM) | 0.5 µg/mL (≈ 0.483 µM) | 64 µg/mL (≈ 61.8 µM) | 64 µg/mL (≈ 61.8 µM) | 
2 | CCC1OC(=O)CC(O)C(C)C(OC2OC(C)C(OC3CC(C)(O)C(O)C(C)O3)C(N(C)C)C2O)C(CCOC(=O)c2nn(CC)c3cc4c(cc3c2=O)OCO4)CC(C)C(=O)C=CC(C)=CC1COC1OC(C)C(O)C(OC)C1OC (stereo not drawn) [Compound 10, 20-DH-20-O-Cinoxacinyltylosin] | > 50 µg/mL | 12.5 µg/mL (≈ 10.8 µM) |  | 8 µg/mL (≈ 6.88 µM) | 1 µg/mL (≈ 0.86 µM) | 8 µg/mL (≈ 6.88 µM) | 128 µg/mL (≈ 110 µM) |  | 8 µg/mL (≈ 6.88 µM) | 2 µg/mL (≈ 1.72 µM) |  | > 50 µg/mL | 1 µg/mL (≈ 0.86 µM) | 2 µg/mL (≈ 1.72 µM) | 0.78 µg/mL (≈ 0.671 µM) | 0.5 µg/mL (≈ 0.43 µM) | 4 µg/mL (≈ 3.44 µM) | 8 µg/mL (≈ 6.88 µM) | 128 µg/mL (≈ 110 µM) | MIC ([3]; Pasteurella multocida, 17E): > 50 µg/mL; MIC ([8]; Mycoplasma hyorhinis, broth-dilution microtiter, read-out: MIC): 25 µg/mL (≈ 21.5 µM); MIC [11]; 80: 3.12 µg/mL (≈ 2.68 µM)
3 | CCC1OC(=O)CC(O)C(C)C(OC2OC(C)C(OC3CC(C)(O)C(O)C(C)O3)C(N(C)C)C2O)C(CCI)CC(C)C(=O)C=CC(C)=CC1COC1OC(C)C(O)C(O)C1OC (stereo not drawn) [Compound 52, 20-DH-DO-20-Iodomacrocin] | > 50 µg/mL | 12.5 µg/mL (≈ 12.3 µM) | > 50 µg/mL | 128 µg/mL (≈ 126 µM) | 2 µg/mL (≈ 1.97 µM) | 8 µg/mL (≈ 7.89 µM) |  | 50 µg/mL (≈ 49.3 µM) | 2 µg/mL (≈ 1.97 µM) | 2 µg/mL (≈ 1.97 µM) | 50 µg/mL (≈ 49.3 µM) | > 50 µg/mL | 4 µg/mL (≈ 3.94 µM) | 2 µg/mL (≈ 1.97 µM) | 3.12 µg/mL (≈ 3.08 µM) |  | 4 µg/mL (≈ 3.94 µM) | 128 µg/mL (≈ 126 µM) |  | MIC ([7]; Haemophilus influenzae Holt, ampicillin-sensitive strain, read-out: MIC): > 128 µg/mL; MIC ([16]; Streptococcus pneumoniae Park I, agar dilution, read-out: MIC): 16 µg/mL (≈ 15.8 µM); MIC ([19]; Haemophilus influenzae R252, ampicillin-resistant strain, read-out: MIC): > 128 µg/mL

— patent publication US4443436A, “C-20-Modified macrolide derivatives of the macrolide antibiotics tylosin, desmycosin, macrocin, and lactenocin” (Eli Lilly and Company, priority 1982, dated 1984)
